Series [1] addresses Platelet-activating factor receptor (Homo sapiens, UniProt P25105). The class given is tissue-based.
The target in the next series is T1, Adenosine receptor A1 (Homo sapiens, UniProt P30542).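 Also: radioligand binding assay at the adenosine A1 receptor, with DPCPX serving as the labelled ligand; in other assays of this panel Not Active means under 50% inhibition at 10 µM.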
T1 sequence (P30542 whole entry): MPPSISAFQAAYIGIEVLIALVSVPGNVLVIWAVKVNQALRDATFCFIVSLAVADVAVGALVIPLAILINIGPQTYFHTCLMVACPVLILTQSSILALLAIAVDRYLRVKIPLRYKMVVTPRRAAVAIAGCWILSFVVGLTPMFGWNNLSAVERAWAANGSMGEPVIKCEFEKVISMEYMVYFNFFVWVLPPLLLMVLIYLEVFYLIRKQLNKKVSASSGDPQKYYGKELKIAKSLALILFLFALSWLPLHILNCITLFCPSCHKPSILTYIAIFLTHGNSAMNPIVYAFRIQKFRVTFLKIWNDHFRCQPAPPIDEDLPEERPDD
The class given is cell membranes, CHO, Membrane.

Series [2] deals with Matrix metalloproteinase-9 (Homo sapiens, UniProt P14780). Type of series: cell-based.
Series [3] concerns the target T2, Alpha-1B adrenergic receptor (Rattus norvegicus, UniProt P15823).
T2 sequence (P15823 whole entry): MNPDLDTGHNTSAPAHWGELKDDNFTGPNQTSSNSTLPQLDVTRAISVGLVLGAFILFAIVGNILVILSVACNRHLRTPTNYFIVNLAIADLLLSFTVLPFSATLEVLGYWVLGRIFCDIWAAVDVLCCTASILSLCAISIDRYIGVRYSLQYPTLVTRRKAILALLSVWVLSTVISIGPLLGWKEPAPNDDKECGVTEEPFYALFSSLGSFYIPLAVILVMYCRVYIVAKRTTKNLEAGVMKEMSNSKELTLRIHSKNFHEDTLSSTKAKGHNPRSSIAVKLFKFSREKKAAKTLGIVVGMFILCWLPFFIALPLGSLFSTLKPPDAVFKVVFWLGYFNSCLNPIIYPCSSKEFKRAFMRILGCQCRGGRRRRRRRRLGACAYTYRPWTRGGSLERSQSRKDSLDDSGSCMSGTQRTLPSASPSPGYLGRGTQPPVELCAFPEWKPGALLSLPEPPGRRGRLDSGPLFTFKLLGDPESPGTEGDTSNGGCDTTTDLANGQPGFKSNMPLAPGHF
Nature of the series: DRUGMATRIX: Alpha-1B adrenergic receptor radioligand binding (ligand: prazosin). Type of series: cell membranes, Wistar, Liver, Membrane. To be noted: Not Active = under 50% inhibition at 10 µM.

Another series deals with Cytochrome P450 2C9 (Homo sapiens, UniProt P11712). To be noted: bti-tn-5b1-4.
Series [4] is described as follows: DRUGMATRIX: Potassium Channel [KATP] radioligand binding (ligand: [3H] Glyburide). The following applies: hit-t15; Not Active = under 50% inhibition at 10 µM. The class given is cell membranes, Membrane.

Data on 18 compounds can be found in ChEMBL document CHEMBL1909046, “DrugMatrix in vitro pharmacology data”.

One may read the IC50 as the concentration that inhibits the measured activity by half. By Ki is commonly meant a dissociation constant, usually derived from enzyme kinetics or from competition with a known ligand.

Sequence of Matrix metalloproteinase-9 (P14780 whole entry): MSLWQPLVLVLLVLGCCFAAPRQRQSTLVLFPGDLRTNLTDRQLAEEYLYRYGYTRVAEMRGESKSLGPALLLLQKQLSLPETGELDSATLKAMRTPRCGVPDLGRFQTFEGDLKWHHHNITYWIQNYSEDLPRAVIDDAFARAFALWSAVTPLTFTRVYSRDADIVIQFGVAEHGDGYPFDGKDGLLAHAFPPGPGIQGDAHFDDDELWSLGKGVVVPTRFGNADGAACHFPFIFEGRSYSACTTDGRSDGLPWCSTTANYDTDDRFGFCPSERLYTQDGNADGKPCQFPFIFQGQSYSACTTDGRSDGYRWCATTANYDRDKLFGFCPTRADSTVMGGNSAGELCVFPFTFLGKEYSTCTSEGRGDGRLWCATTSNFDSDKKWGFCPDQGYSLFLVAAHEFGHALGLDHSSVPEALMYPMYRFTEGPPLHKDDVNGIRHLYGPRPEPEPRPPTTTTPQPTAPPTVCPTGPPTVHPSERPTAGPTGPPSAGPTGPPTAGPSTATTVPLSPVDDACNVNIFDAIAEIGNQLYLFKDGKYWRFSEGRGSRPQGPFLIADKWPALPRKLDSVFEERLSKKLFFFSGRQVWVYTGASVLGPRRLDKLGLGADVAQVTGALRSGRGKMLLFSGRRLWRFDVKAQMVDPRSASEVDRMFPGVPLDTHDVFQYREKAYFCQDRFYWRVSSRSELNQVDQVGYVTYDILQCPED
Sequence of Platelet-activating factor receptor (P25105 whole entry): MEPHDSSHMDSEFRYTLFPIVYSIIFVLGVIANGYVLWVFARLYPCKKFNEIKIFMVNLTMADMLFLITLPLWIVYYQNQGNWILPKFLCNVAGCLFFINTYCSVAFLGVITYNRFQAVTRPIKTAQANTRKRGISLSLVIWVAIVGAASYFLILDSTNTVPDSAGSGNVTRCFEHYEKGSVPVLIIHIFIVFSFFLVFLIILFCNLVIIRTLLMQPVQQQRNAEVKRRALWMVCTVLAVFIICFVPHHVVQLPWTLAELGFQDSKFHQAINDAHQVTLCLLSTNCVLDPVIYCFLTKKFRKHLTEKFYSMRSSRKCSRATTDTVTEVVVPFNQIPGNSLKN
Sequence of Cytochrome P450 2C9 (P11712 whole entry): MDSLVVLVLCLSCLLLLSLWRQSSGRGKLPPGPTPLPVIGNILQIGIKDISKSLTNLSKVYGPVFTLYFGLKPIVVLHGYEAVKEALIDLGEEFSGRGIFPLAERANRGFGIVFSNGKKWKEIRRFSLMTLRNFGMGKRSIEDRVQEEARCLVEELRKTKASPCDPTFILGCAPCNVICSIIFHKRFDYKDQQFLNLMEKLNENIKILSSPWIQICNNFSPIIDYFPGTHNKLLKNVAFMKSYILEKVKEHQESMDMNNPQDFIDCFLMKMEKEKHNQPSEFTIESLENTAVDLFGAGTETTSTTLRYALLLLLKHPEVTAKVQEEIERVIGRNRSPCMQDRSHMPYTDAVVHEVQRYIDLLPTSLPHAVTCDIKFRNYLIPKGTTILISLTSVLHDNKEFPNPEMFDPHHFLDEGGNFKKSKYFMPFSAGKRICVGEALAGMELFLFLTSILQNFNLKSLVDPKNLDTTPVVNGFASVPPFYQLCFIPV

Regarding `O=C(O)P(=O)(O)O` [FOSCARNET], the 50% inhibitory concentration (IC50) result (in series [1]; against Adenosine receptor A1 (cho); in series [2]; in series [3]; at Cytochrome P450 2C9; in series [4]) was “Not Active” in each case. Besides, the inhibition constant Ki entry (at Cytochrome P450 2C9; in series [4]) was “Not Active” throughout.
On to `Cc1ccc(C)c(OCCCC(C)(C)C(=O)O)c1` [GEMFIBROZIL], for which the IC50 result (in series [1]; on Adenosine receptor A1 (cho); in series [2]; in series [3]; against Cytochrome P450 2C9; in series [4]) was “Not Active” throughout. For the same compound, the inhibition constant Ki entry (on Cytochrome P450 2C9; in series [4]) was “Not Active” throughout.
Take `O=c1c(-c2ccc(O)cc2)coc2cc(O)cc(O)c12` [GENISTEIN]: the half-maximal inhibitory concentration (IC50) entry was “Not Active” in series [1]; 19.9 µM on Adenosine receptor A1 (read-out: IC50); “Not Active” in series [2]; “Not Active” in series [3]; “Not Active” against Cytochrome P450 2C9; “Not Active” in series [4]. Moreover, the inhibitory constant (Ki) at Adenosine receptor A1 (read-out: Ki) was 11.6 µM; at Cytochrome P450 2C9, “Not Active”; in series [4], “Not Active”.
Turning to `Nc1cc(-c2ccncc2)c[nH]c1=O` [INAMRINONE], the concentration for half-maximal inhibition (IC50) entry (in series [1]; on Adenosine receptor A1 (cho); in series [2]; in series [3]; against Cytochrome P450 2C9; in series [4]) was “Not Active” throughout. Also, the inhibition constant (Ki) result (on Cytochrome P450 2C9; in series [4]) was “Not Active” throughout.
For `CCCCC1=NC2(CCCC2)C(=O)N1Cc1ccc(-c2ccccc2-c2nnn[nH]2)cc1` [IRBESARTAN], the IC50 result (in series [1]; at Adenosine receptor A1 (cho); in series [2]; in series [3]; at Cytochrome P450 2C9; in series [4]) was “Not Active” throughout. Moreover, the inhibition constant Ki entry (on Cytochrome P450 2C9; in series [4]) was “Not Active” in each case.
As to `CN1CCC(=C2c3ccccc3CC(=O)c3sccc32)CC1` [KETOTIFEN], the 50% inhibitory concentration (IC50) entry (in series [1]; against Adenosine receptor A1 (cho); in series [2]; in series [3]; against Cytochrome P450 2C9; in series [4]) was “Not Active” each time. The inhibition constant (Ki) result (on Cytochrome P450 2C9; in series [4]) was “Not Active” throughout.
On to `C[N+](C)(C)C[C@H](O)CC(=O)[O-]` [LEVOCARNITINE], for which the IC50 entry (in series [1]; against Adenosine receptor A1 (cho); in series [2]; in series [3]; on Cytochrome P450 2C9; in series [4]) was “Not Active” in each case. Moreover, the Ki entry (at Cytochrome P450 2C9; in series [4]) was “Not Active” each time.
For the compound `C[C@H]1COc2c(N3CCN(C)CC3)c(F)cc3c(=O)c(C(=O)O)cn1c23.C[C@H]1COc2c(N3CCN(C)CC3)c(F)cc3c(=O)c(C(=O)O)cn1c23.O` [LEVOFLOXACIN], the concentration for half-maximal inhibition (IC50) entry (in series [1]; against Adenosine receptor A1 (cho); in series [2]; in series [3]; on Cytochrome P450 2C9; in series [4]) was “Not Active” each time. The inhibition constant (Ki) result (at Cytochrome P450 2C9; in series [4]) was “Not Active” throughout.
With `CN1CCCC(CN2c3ccccc3Sc3ccccc32)C1` (stereo unspecified) [MEPAZINE], the IC50 entry in series [1] is “Not Active”; at Adenosine receptor A1 (cho), “Not Active”; in series [2] it was “Not Active”; in series [3] (read-out: IC50) it was 0.061 µM; against Cytochrome P450 2C9, “Not Active”; in series [4], “Not Active”. Moreover, the Ki in series [3] (read-out: Ki) was 0.034 µM; on Cytochrome P450 2C9, “Not Active”; in series [4], “Not Active”.
`Cc1cccc(C)c1NC(=O)C1CCCCN1C` (stereo unspecified) [MEPIVACAINE]: the IC50 entry (in series [1]; on Adenosine receptor A1 (cho); in series [2]; in series [3]; on Cytochrome P450 2C9; in series [4]) was “Not Active” each time. The Ki result (at Cytochrome P450 2C9; in series [4]) was “Not Active” throughout.
For the compound `CN(C)C(=N)NC(=N)N` [METFORMIN], the IC50 result (in series [1]; at Adenosine receptor A1 (cho); in series [2]; in series [3]; against Cytochrome P450 2C9; in series [4]) was “Not Active” throughout. Also, the inhibition constant Ki entry (on Cytochrome P450 2C9; in series [4]) was “Not Active” each time.
In the case of `C[C@]12CC[C@H]3[C@@H](CCC4=CC(=O)CC[C@@H]43)[C@@H]1CC[C@@H]2O` [NANDROLONE], the IC50 result (in series [1]; against Adenosine receptor A1 (cho); in series [2]; in series [3]; at Cytochrome P450 2C9; in series [4]) was “Not Active” in each case. For the same compound, the Ki result (on Cytochrome P450 2C9; in series [4]) was “Not Active” in each case.
Turning to `CN(C)C(=O)Oc1cccc([N+](C)(C)C)c1.[Br-]` [NEOSTIGMINE BROMIDE], the concentration for half-maximal inhibition (IC50) entry (in series [1]; against Adenosine receptor A1 (cho); in series [2]; in series [3]; at Cytochrome P450 2C9; in series [4]) was “Not Active” throughout. In addition, the inhibition constant Ki result (on Cytochrome P450 2C9; in series [4]) was “Not Active” throughout.
On to `NC(=O)c1cccnc1` [NIACINAMIDE], for which the IC50 entry (in series [1]; against Adenosine receptor A1 (cho); in series [2]; in series [3]; at Cytochrome P450 2C9; in series [4]) was “Not Active” throughout. Also, the Ki result (at Cytochrome P450 2C9; in series [4]) was “Not Active” in each case.
Turning to `CS(=O)(=O)Nc1ccc([N+](=O)[O-])cc1Oc1ccccc1` [NIMESULIDE], the IC50 entry (in series [1]; on Adenosine receptor A1 (cho); in series [2]; in series [3]; at Cytochrome P450 2C9; in series [4]) was “Not Active” throughout. Further, the inhibitory constant (Ki) entry (on Cytochrome P450 2C9; in series [4]) was “Not Active” each time.
Regarding `CN1C(=O)CN=C(c2ccccc2)c2cc([N+](=O)[O-])ccc21` [NIMETAZEPAM], the 50% inhibitory concentration (IC50) result (in series [1]; on Adenosine receptor A1 (cho); in series [2]; in series [3]; on Cytochrome P450 2C9; in series [4]) was “Not Active” in each case. Moreover, the Ki result (on Cytochrome P450 2C9; in series [4]) was “Not Active” in each case.
Turning to `C[C@@H]1O[C@@H](O[C@H]2C[C@@H](O)[C@]3(CO)[C@H]4[C@H](O)C[C@]5(C)[C@@H](C6=CC(=O)OC6)CC[C@]5(O)[C@@H]4CC[C@]3(O)C2)[C@H](O)[C@H](O)[C@H]1O` [OUABAIN], the IC50 entry (in series [1]; against Adenosine receptor A1 (cho); in series [2]; in series [3]; against Cytochrome P450 2C9; in series [4]) was “Not Active” in each case. Further, the inhibition constant (Ki) result (at Cytochrome P450 2C9; in series [4]) was “Not Active” each time.
As for `NC(=O)N1c2ccccc2CC(=O)c2ccccc21` [OXCARBAZEPINE], the IC50 result (in series [1]; on Adenosine receptor A1 (cho); in series [2]; in series [3]; against Cytochrome P450 2C9; in series [4]) was “Not Active” each time. In addition, the inhibitory constant (Ki) entry (on Cytochrome P450 2C9; in series [4]) was “Not Active” throughout.
